Source: patent publication EP0099122A2, “Compositions comprising pepstatin and an histamine H2-receptor antagonist having an enhanced antiulcer activity” (Bristol-Myers Company, priority 1982, dated 1984)
Marks after values point to notes of the source that are not given here.

Experiments:
[1] = tested on: gastric acid secretion; assay: Inhibition of gastric acid secretion relative to cimetidine, various animal studies; format: in vivo; details: inhibitors of gastric acid secretion, oral route
Procedure: Based on this potency difference, the oral dosage of the compounds of Examples 1 and 9 would be about 1/20 to 1/25 that of cimetidine, thus reducing the expected incidence of side effects. The usual oral dosage of cimetidine is 300 mg, given four times a day, while the usual dosage of the compounds of Examples 1 and 9 is about 12-15 mg, given four times a day. It was an object of this invention to further reduce the necessary dosage of the compounds of Formula I by the concomitant administration of a peptic activity- inhibitory amount of pepstatin. As will be shown below, such concomitant administration provides about a three-fold increase in potency compared with the administration of an equal amount of the compound of Formula I alone, thus permitting a further three-fold reduction in the dosage of the compound of Formula I.

[2] = tested on: Gastric Fistula Rat; assay: Gastric antisecretory activity in the Gastric Fistula Rat; format: in vivo, Long Evans rats; details: sc, 95% confidence limits in parentheses
Procedure: Determination of Gastric Antisecretory Activity in the Gastric Fistula Rat
Male Long Evans rats weighing about 240-260 grams at the time of cannula implantation are used. […] The fistula components are designed and the operative procedure is carried out exactly as described in the above reference. Post operatively the animals are individually housed in solid bottom cages with sawdust and are allowed food and water ad libitum throughout the entire recovery period. Animals are not used for test purposes for at least 15 days after the operative procedure.
The animals are fasted but allowed water ad libitum for 20 hours before the testing procedure is to begin. Immediately prior to collection, the cannula is opened and the. stomach washed gently with 30-40 mL of warm saline or distilled water to remove any residual contents. The catheter is then screwed into the cannula in place of the plugging screw and the rat is placed in a clear plastic rectangular cage measuring 40 cm long, 15 cm wide and 13 cm high. The bottom of the cage has a slit approximately 1.5 cm wide and 25 cm long running down the center to accommodate the catheter which hangs through it. In this way the rat is not restricted and can move -freely about the cage during collection periods. The remainder of the assay is carried out as described by Ridley et al. [Research Comm. Chem. Path.
Gastric secretions collected during the first hour after washing the stomach are discarded as they may be contaminated. For oral evaluation, the catheter is then removed from the cannula and replaced with the plugging screw. Water (2 mL/kg) is administered orally via gastric intubation and the animal is returned to the cage for 45 minutes. After this time the plugging screw is removed and replaced with a catheter to which a small plastic vial has been attached to collect the gastric secretions. A two hour sample is collected (this represents the control secretion), the catheter removed and.replaced with the plugging screw. The test drug is now administered orally in a volume of 2 mL/kg via gastric intubation. Forty-five minutes later the plugging screw is again removed, replaced with the catheter attached to a small plastic vial and another 2 hour sample is collected. The secretions in the second sample are compared to those of the control sample in order to determine thee effects of the test drug.
When test compounds are to be evaluated parenterally, the animal is injected ip or sc with the test compound vehicle in a volume of 2 mL/kg immediately after discarding the initial 60 minute collection. A two hour sample is collected (control secretion) and the animals are injected either ip or sc with the test compound in a volume of 2 mL/kg. An additional two hour sample is collected and its secretions are compared to those of the control period to determing drug effects.
The samples are centrifuged in a graduated tube for volume determination. Titratable acidity is measured by titrating a one mL sample to pH 7.0 with 0.02N NaOH, using an Autoburet and an electrometric pH meter (Radiometer). Titratable acid output is calculated in microequivalents by multiplying the volume in milliliters by the acid concentration in milliequivalents per liter.
Results are expressed as percent inhibition relative to control readings. Dose response curves are constructed and ED50 values are calculated by regression analyses. At least three rats are used at each dosage level and a minimum of three dosage levels are utilized for determination of a dose response curve.

[3] = tested on: Heidenhain Pouch Dog; assay: Gastric antisecretory activity in the Heidenhain Pouch Dog; format: in vivo, dogs; details: 95% confidence limits in parentheses; for ED50: Canis lupus familiaris
Procedure: Determination of Gastric Antisecretory […] in the Heidenhain Pouch Dog Prior to surgery, hematology and blood chemistry profiles are obtained and an assessment made as to the general health of selected female dogs. Dogs are vaccinated with Tissue […]-Moore) and housed in general animal quarters for four weeks' observation so incipient diseases may become apparent. Dogs are fasted with water ad libitum 24 hours prior to surgery. […] Subsequent anesthesia is maintained with methoxy- flurane (Pitman-Moore). A mid-line linea alba incision from xiphoid to umbilicus provides good exposure and ease of closure. The stomach is pulled up into the operative fields the greater curvature stretched out at multiple points and clamps placed along the selected line of incision. The pouch is made from the corpus of the stomach so that true parietal cell juice is obtained. About 30% of the corpus volume is resected. The cannula is made of light-weight, biologically-inert material such as nylon or Delrin with dimensions and attachments after DeVito and […] fJ. Appl. Physiol., 14, 138 (1959)]. Post operatively, dogs are medicated with antibiotics and an analgesic. They are allowed 2-3 months for recovery. Experiments are carried out in the following way: […] The dogs are placed in a sling and a saphenous vein cannulated for drug administration. Histamine as the base (100 μg/kg/hr) and chlorpheniramine maleate (0.25 mg/kg/hr) are infused continuously (in a volume of 6 mL/hr) with a Harvard infusion pump. Ninety minutes' infusion are allowed for the dogs to reach a steady state of acid output. At this time the drug or normal saline (control) is administered concomitantly with the secretagogue in a volume of 0.5 mL/kg over a 30 second period. When oral studies are to be carried out, the drug is administered via gastric gavage in a volume of 5 mL/kg. Infusion of the secretagogue is continued and 15 minute samples of the gastric juice are taken for 4.5 hours. Each sample is measured to the nearest 0.5 mL and titratable acidity is determined by titrating a 1 mL sample to pH 7.0 with 0.2N NaOH, using an Autoburet and an electrometric pH meter '(Radiometer). Titratable acid output is calculated in microequivalents by multiplying the volume in milliliters by the acid concentration in milliequivalents per liter. Results are expressed as percent inhibition relative to control readings. Dose response curves are constructed and ED50 values are calculated by regression analyses. From 3 to 5 dogs are used at each dose level and a minimum of three dosage levels are utilized for determination of a dose response curve.

## Nc1c(NCCCOc2cccc(CN3CCCCC3)c2)c(=O)c1=O [Example 1]
[1]
  times more potent than cimetidine: 20-25
[2]; Rattus norvegicus, read-out: ED50 sc
  ED50: 0.023 µmol/kg
[2]
  Potency Ratio [cimetidine = 1.0]: 162 (77-328)*
[3]; INTRAVENOUS
  ED50: 0.024 µmol/kg
  Potency Ratio [cimetidine = 1.0]: 87 (62-117)*
[3]; ORAL
  ED50: 0.16 µmol/kg
  Potency Ratio [cimetidine = 1.0]: 25 (14-40)
